Test results from PubChem BioAssay (NCI).
In brackets after ≈: the same amount, converted by molar mass.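 Values below derive from 48-hour exposures of cells grown in 96-well plates, with endpoints linearly interpolated between the two concentrations bracketing the appropriate inhibition level. GI50 marks 50% less growth. Definition used: TGI = concentration required for complete inhibition of growth.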

Key:
Assay in all cases: NCI tumour cell line growth inhibition, 48 h
BT-549 breast = system: BT-549 breast
MDA-MB-435 = system: MDA-MB-435
A498 renal = system: A498 renal
HCC-2998 colon = system: HCC-2998 colon
SK-MEL-2 melanoma = system: SK-MEL-2 melanoma
OVCAR-3 ovarian = system: OVCAR-3 ovarian
EKVX NSCLC = system: EKVX NSCLC
MOLT-4 leukemia = system: MOLT-4 leukemia
NCI-H23 lung = system: NCI-H23 lung
TK-10 renal = system: TK-10 renal
K-562 leukemia = system: K-562 leukemia
HT29 colon = system: HT29 colon
OVCAR-4 ovarian = system: OVCAR-4 ovarian
HOP-92 NSCLC = system: HOP-92 NSCLC
T-47D breast = system: T-47D breast
RXF 393 renal = system: RXF 393 renal
NCI/ADR-RES ovarian = system: NCI/ADR-RES ovarian
IGROV1 ovarian = system: IGROV1 ovarian
ACHN renal = system: ACHN renal
A549 NSCLC = system: A549 NSCLC
NCI-H226 lung = system: NCI-H226 lung
HCT-15 colon = system: HCT-15 colon
NCI-H522 lung = system: NCI-H522 lung
OVCAR-5 ovarian = system: OVCAR-5 ovarian
SN12C renal = system: SN12C renal
HS 578T breast = system: HS 578T breast
MALME-3M melanoma = system: MALME-3M melanoma
SF-539 CNS = system: SF-539 CNS
MCF7 breast = system: MCF7 breast
HL-60(TB) leukemia = system: HL-60(TB) leukemia
CCRF-CEM leukemia = system: CCRF-CEM leukemia
NCI-H460 lung = system: NCI-H460 lung
UACC-62 melanoma = system: UACC-62 melanoma
HOP-62 NSCLC = system: HOP-62 NSCLC
OVCAR-8 ovarian = system: OVCAR-8 ovarian
SNB-19 CNS = system: SNB-19 CNS
SF-268 CNS = system: SF-268 CNS
PC-3 prostate = system: PC-3 prostate
KM12 colon = system: KM12 colon
DU-145 prostate = system: DU-145 prostate
MDA-MB-231 breast = system: MDA-MB-231 breast
RPMI-8226 leukemia = system: RPMI-8226 leukemia
COLO 205 colon = system: COLO 205 colon
SK-MEL-28 melanoma = system: SK-MEL-28 melanoma
UACC-257 melanoma = system: UACC-257 melanoma
SW-620 colon = system: SW-620 colon
SK-OV-3 ovarian = system: SK-OV-3 ovarian
SK-MEL-5 melanoma = system: SK-MEL-5 melanoma
LOX IMVI melanoma = system: LOX IMVI melanoma
SNB-75 CNS = system: SNB-75 CNS
U251 CNS = system: U251 CNS

CC(=O)OC1C=CC(OC(C)=O)C2C1[C@H]1C3C=CC=CC3[C@@H]2S1=O (some centres undefined) showed a GI50 (BT-549 breast) of 59.8 mg/L (≈ 172 µM), a GI50 (MDA-MB-435) of 40.2 mg/L and a GI50 (A498 renal) of 53.7 mg/L. The GI50 (HCC-2998 colon) was 94.2 mg/L.

O=C1c2c(c3c4ccccc4[nH]c3c3ccc4ccccc4c23)C(=O)N1CCN1CCCCC1 showed a GI50 (SK-MEL-2 melanoma) of 2.25 µM, a TGI (SK-MEL-2 melanoma) of 5.36 µM and a GI50 (OVCAR-3 ovarian) of 1.99 µM. For the same compound, the TGI (OVCAR-3 ovarian) was 5.04 µM, the GI50 (EKVX NSCLC) was 13.4 µM and the TGI (EKVX NSCLC) was > 100 µM. It also gave a GI50 (MOLT-4 leukemia) of 0.354 µM, a TGI (MOLT-4 leukemia) of 5.35 µM and a GI50 (NCI-H23 lung) of 0.741 µM. For the same compound, the TGI (NCI-H23 lung) was 9.79 µM, the GI50 (TK-10 renal) was 3.38 µM and the TGI (TK-10 renal) was > 100 µM. For the same compound, the GI50 (K-562 leukemia) was 1.33 µM, the TGI (K-562 leukemia) was 6.34 µM and the GI50 (HT29 colon) was 1.72 µM. The TGI (HT29 colon) was 10.6 µM, the GI50 (OVCAR-4 ovarian) was 2.03 µM and the TGI (OVCAR-4 ovarian) was 5.74 µM. It also gave a GI50 (HOP-92 NSCLC) of 2.67 µM, a TGI (HOP-92 NSCLC) of 38.8 µM and a GI50 (T-47D breast) of 1.61 µM. For the same compound, the TGI (T-47D breast) was 7.87 µM, the GI50 (RXF 393 renal) was 1.47 µM and the TGI (RXF 393 renal) was 3.01 µM. The GI50 (NCI/ADR-RES ovarian) was 0.797 µM, the TGI (NCI/ADR-RES ovarian) was 3.31 µM and the GI50 (MDA-MB-435) was 1.72 µM. For the same compound, the TGI (MDA-MB-435) was 3.26 µM, the GI50 (IGROV1 ovarian) was 1.25 µM and the TGI (IGROV1 ovarian) was 4.29 µM. The GI50 (ACHN renal) was 0.335 µM, the TGI (ACHN renal) was 2.26 µM and the GI50 (A549 NSCLC) was 3.1 µM. For the same compound, the TGI (A549 NSCLC) was > 100 µM, the GI50 (NCI-H226 lung) was 1.23 µM and the TGI (NCI-H226 lung) was 3.39 µM. The GI50 (HCT-15 colon) was 0.963 µM, the TGI (HCT-15 colon) was 3.38 µM and the GI50 (NCI-H522 lung) was 1.5 µM. For the same compound, the TGI (NCI-H522 lung) was 5.36 µM, the GI50 (OVCAR-5 ovarian) was 1.52 µM and the TGI (OVCAR-5 ovarian) was 3.49 µM. The GI50 (SN12C renal) was 0.447 µM, the TGI (SN12C renal) was 1.73 µM and the GI50 (HS 578T breast) was 2.04 µM. The TGI (HS 578T breast) was 5.71 µM, the GI50 (MALME-3M melanoma) was 1.33 µM and the TGI (MALME-3M melanoma) was 2.92 µM. The GI50 (A498 renal) was 1.18 µM, the TGI (A498 renal) was 9.85 µM and the GI50 (SF-539 CNS) was 1.41 µM. It also gave a TGI (SF-539 CNS) of 3.21 µM, a GI50 (MCF7 breast) of 0.0388 µM and a TGI (MCF7 breast) of 2.34 µM. The GI50 (HL-60(TB) leukemia) was 1.07 µM, the TGI (HL-60(TB) leukemia) was 3.31 µM and the GI50 (CCRF-CEM leukemia) was 0.272 µM. For the same compound, the TGI (CCRF-CEM leukemia) was 11.3 µM, the GI50 (NCI-H460 lung) was 0.25 µM and the TGI (NCI-H460 lung) was 1.45 µM. It also gave a GI50 (UACC-62 melanoma) of 1.21 µM, a TGI (UACC-62 melanoma) of 2.59 µM and a GI50 (HOP-62 NSCLC) of 1.06 µM. For the same compound, the TGI (HOP-62 NSCLC) was 3.43 µM, the GI50 (OVCAR-8 ovarian) was 1.27 µM and the TGI (OVCAR-8 ovarian) was 4.48 µM. It also gave a GI50 (SNB-19 CNS) of 0.94 µM, a TGI (SNB-19 CNS) of 46.4 µM and a GI50 (HCC-2998 colon) of 1.95 µM. The TGI (HCC-2998 colon) was 15.3 µM, the GI50 (SF-268 CNS) was 1.15 µM and the TGI (SF-268 CNS) was > 100 µM. It also gave a GI50 (PC-3 prostate) of 1.68 µM, a TGI (PC-3 prostate) of 24.7 µM and a GI50 (KM12 colon) of 3.05 µM. For the same compound, the TGI (KM12 colon) was 25.5 µM, the GI50 (DU-145 prostate) was 1.05 µM and the TGI (DU-145 prostate) was 14.5 µM. For the same compound, the GI50 (MDA-MB-231 breast) was 1.95 µM, the TGI (MDA-MB-231 breast) was 5.08 µM and the GI50 (RPMI-8226 leukemia) was 1.78 µM. For the same compound, the TGI (RPMI-8226 leukemia) was 4.7 µM, the GI50 (COLO 205 colon) was 1.38 µM and the TGI (COLO 205 colon) was 8.28 µM. It also gave a GI50 (SK-MEL-28 melanoma) of 1.65 µM, a TGI (SK-MEL-28 melanoma) of 3.16 µM and a GI50 (UACC-257 melanoma) of 1.87 µM. For the same compound, the TGI (UACC-257 melanoma) was 4.23 µM, the GI50 (SW-620 colon) was 0.663 µM and the TGI (SW-620 colon) was 4.75 µM. The GI50 (SK-OV-3 ovarian) was 0.801 µM, the TGI (SK-OV-3 ovarian) was > 100 µM and the GI50 (SK-MEL-5 melanoma) was 1.51 µM. For the same compound, the TGI (SK-MEL-5 melanoma) was 3.1 µM, the GI50 (LOX IMVI melanoma) was 0.894 µM and the TGI (LOX IMVI melanoma) was 2.33 µM. The GI50 (SNB-75 CNS) was 2.2 µM, the TGI (SNB-75 CNS) was 22.6 µM and the GI50 (U251 CNS) was 1.05 µM. For the same compound, the TGI (U251 CNS) was 7.51 µM.
